Where two headings read alike, the source gives them in different places.
Tested on: New Zealand White female rabbits
Assay type: in vivo
Protocol: The ocular tolerability of the various pharmaceutical-grade excipients used in our formulations was evaluated in vivo using New Zealand White female rabbits. A total of ten test groups with three rabbits each were used to test the materials listed below in Table 16. Dosing in each group was done by instilling one drop of material at the lowest concentration into the left eye of the first rabbit. If not tolerated, dosing was stopped. If tolerated, one drop of the same concentration was instilled into the left eye of the second rabbit and then again for the third rabbit. If a concentration was tolerated by 3 rabbits, dosing continued in the same pattern with the next higher concentration, if applicable.
Sample compositions, specifically, the vehicle used to dilute the materials tested, are listed in the next table (Table 17).

| Compound | Concentration at which the not tolerated finding was seen (lowest concentration not tolerated) [%] | Concentration not tolerated (topical ocular, rabbits) [%] | Concentration at which the not tolerated finding was seen (rabbit, in vivo) [%] | Maximum Tolerated Concentration (rabbit, in vivo) [% w/w] | Reason Not Tolerated: Ocular discomfort (score) (rabbit, in vivo) |
| --- | --- | --- | --- | --- | --- |
| CC(O)CO (centres unmarked) [Propylene Glycol] | 10 | 10 |  |  |  |
| PEG 400 |  |  | 20 | 10 | +3, 1 Ocular discomfort seen at |
| PEG (polyethylene glycol) 300 [PEG 300] |  |  | 10 |  |  |
| polyoxyethylene sorbitan monooleate [PS80] |  |  | 40 | 30 |  |
